Reference: PubChem BioAssay (NCI)
“And” between values parts separate entries of the source, which are not always exact repeats. Identical values can stand only once.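 Dose response: 5 concentrations. Exposure: 48 h. Format: 96-well plates. Endpoint: linear interpolation; highest concentration if not reached. Here, GI50 denotes the concentration required for 50% inhibition of growth. At the TGI there is no net growth.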

Legend:
Experiment in all cases: growth of human tumour cells (NCI), 48 h
[1] = test system: CAKI-1 renal
[2] = test system: HOP-92 NSCLC
[3] = test system: IGROV1 ovarian
[4] = test system: MDA-MB-231 breast
[5] = test system: NCI-H522 lung
[6] = test system: OVCAR-3 ovarian
[7] = test system: OVCAR-4 ovarian
[8] = test system: RPMI-8226 leukemia
[9] = test system: MDA-N

O=c1[nH]ncc2[nH]c3c(c12)CCc1ccccc1-3
TGI [1]: > 100 µM | TGI [2]: 81.8 µM | TGI [3]: 44.3 µM | TGI [4]: > 100 µM | TGI [5]: 57 µM | TGI [6]: > 100 µM | TGI [7]: > 100 µM | TGI [8]: 70.7 µM

COc1cc2c(cc1O)NC(=O)[C@@H]1C[C@@H](O)CN1C2=O
TGI [1]: > 100 µM | TGI [2]: > 100 µM | TGI [3]: > 100 µM | TGI [4]: > 100 µM | TGI [5]: > 100 µM | TGI [6]: > 100 µM | TGI [7]: > 100 µM | TGI [8]: > 100 µM

Cc1ccc(S(=O)(=O)OCCN(CCOS(=O)(=O)c2ccc(C)cc2)c2ccc(C=O)cc2)cc1
TGI [1]: 48.8 µM | TGI [2]: 75.3 µM | TGI [3]: > 100 µM | TGI [4]: > 100 µM | TGI [5]: 34.1 µM | TGI [6]: 56 µM | TGI [7]: 44.3 µM | TGI [8]: > 100 µM

COc1cccc(/C=N/[N-]C(N)=O)c1[O-].[Cu+2].[OH3+]
GI50 [2]: 4.77 µM | TGI [2]: 8.9 µM and 15.5 µM | GI50 [3]: 6.14 µM | TGI [3]: 19.6 µM | GI50 [6]: 10.4 µM | TGI [6]: 22.8 µM | TGI [7]: 32.3 µM | TGI [8]: > 100 µM

O=[N+]([O-])/C=C/c1cc(Cl)c(/C=C/[N+](=O)[O-])cc1Cl
TGI [2]: 6.77 µM | TGI [3]: 8.62 µM | TGI [9]: 8.19 µM | TGI [6]: 5.04 µM | TGI [8]: 3.99 µM

COC1=C(OC)C(=O)C(Cc2c(Cl)nc3sccn23)=C(C)C1=O
TGI [1]: 45 µM | TGI [3]: 29.1 µM | TGI [4]: 8.28 µM | TGI [5]: 20.2 µM | TGI [6]: 25.8 µM | TGI [7]: 18.8 µM | TGI [8]: 15.7 µM

Cc1ccc(S(=O)(=O)N/N=c2/sc3ccccc3n2C)cc1
TGI [1]: > 100 µM | TGI [2]: > 100 µM | TGI [3]: > 100 µM | TGI [4]: > 100 µM | TGI [5]: > 100 µM | TGI [7]: > 100 µM | TGI [8]: > 100 µM

[N-]=[N+]=CC(=O)C1CCN(c2ccccc2)C1=O (stereo not given)
TGI [1]: > 10 µM | TGI [3]: > 10 µM | TGI [4]: > 10 µM | TGI [9]: > 10 µM | TGI [6]: > 10 µM | TGI [7]: > 10 µM | TGI [8]: > 10 µM

Nc1c(C(=O)O)c2ccc([N+](=O)[O-])cc2c(=O)n1-c1nc2ccccc2s1
TGI [1]: > 100 µM | TGI [3]: > 100 µM | TGI [4]: > 100 µM | TGI [9]: > 100 µM | TGI [5]: > 100 µM | TGI [6]: > 100 µM | TGI [7]: > 100 µM | TGI [8]: > 100 µM

Cn1c(CO)ccc1-c1ccc(-c2ccc(CO)[se]2)[se]1
TGI [1]: 0.0381 µM | TGI [3]: 12.4 µM | TGI [4]: > 67.2 µM | TGI [5]: > 86.3 µM | TGI [6]: 26.7 µM | TGI [7]: 3.67 µM | TGI [8]: 12.1 µM

COc1cc2c(cc1OC)C1=C(C=O)c3ccc(OC)c(OC)c3C(O)N1CC2 (stereo not given)
TGI [1]: > 100 µM | TGI [4]: 46.6 µM | TGI [9]: > 100 µM | TGI [5]: 75.2 µM | TGI [6]: > 100 µM | TGI [7]: > 100 µM | TGI [8]: 38.3 µM
